Patent US20250361233A1, “Compounds For Activating Serotonin Receptor” (PSYLO PTY LTD, priority 2023, published 2025)

Key:
Type in all cases: cell-based
5-HT2B receptor = biological target: T1, 5-HT2B receptor (Homo sapiens, UniProt P41595); assay: 5-HT2B activation in a similar assay at a single 10 μM concentration
T1 construct: host or cells: CHO-K1
Experimental: Activation data are provided in a similar assay tested at a single 10 μM concentration.

5-HT2C receptor = biological target: T2, 5-HT2C receptor (Homo sapiens, UniProt P28335); assay: FLIPR Ca2+ flux functional assay, agonist activity at 5-HT2C; conditions: stably transfected HEK293 cells
T2 construct: host or cells: HEK293
T2 sequence (P28335 33-458): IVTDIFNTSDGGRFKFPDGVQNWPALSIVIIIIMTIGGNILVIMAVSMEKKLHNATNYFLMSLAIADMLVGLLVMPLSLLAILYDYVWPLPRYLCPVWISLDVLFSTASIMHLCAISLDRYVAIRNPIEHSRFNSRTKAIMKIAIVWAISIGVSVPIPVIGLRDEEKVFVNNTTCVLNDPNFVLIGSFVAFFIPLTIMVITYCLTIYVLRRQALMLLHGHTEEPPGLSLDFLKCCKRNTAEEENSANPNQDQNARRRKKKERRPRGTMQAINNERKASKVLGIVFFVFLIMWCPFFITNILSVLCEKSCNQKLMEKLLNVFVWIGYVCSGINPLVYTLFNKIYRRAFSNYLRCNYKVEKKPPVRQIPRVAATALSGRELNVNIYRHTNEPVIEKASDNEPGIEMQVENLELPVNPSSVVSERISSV
Experimental: (§1) Functional assays 5-HT2A, 5-HT2B and 5-HT2C Receptors
(§2) Activity at 5-HT2A, 5-HT2B and 5-HT2C receptors was determined using a FLIPR Ca2+ flux assay at WuXi AppTec Co. Ltd. (Hong Kong) Discovery Biology Unit according to their standard protocols. Briefly, stably transfected cells expressing the receptor of interest (HEK293 for 5-HT2A and 5-HT2C; CHO-K1 for 5-HT2B) were grown and plated in a 384 well plate and incubated at 37° C. and 5% CO2 overnight. A 250 mM stock solution of probenecid in FLIPR calcium assay buffer (10 mL) was freshly prepared and combined with a fluorescent dye (Fluo-4 Direct) to give a final assay concentration of 2.5 mM. Reference compounds were 4-fold serially diluted and the screening compounds were 3-fold serially diluted in 100% DMSO for 10 points using Agilent Bravo, and 750 nL was added to a 384 well compound plate using Echo along with 30 μL assay buffer. The fluorescent dye was then added to the assay plate along with assay buffer to a final volume of 40 μL. The cell plate was incubated for 50 min at 37° C. and 5% CO2 and placed into the FLIPR Tetra along with the compound plate. 10 μL of references and compounds were then transferred from the compound plate into the cell plate and the fluorescent signal was read.

5-HT2A receptor = biological target: T3, 5-HT2A receptor (Homo sapiens, UniProt P28223); assay: FLIPR Ca2+ flux functional assay, agonist activity at 5-HT2A; conditions: stably transfected HEK293 cells
T3 construct: host or cells: HEK293
Experimental: as §1, §2

T1 sequence (P41595 whole entry): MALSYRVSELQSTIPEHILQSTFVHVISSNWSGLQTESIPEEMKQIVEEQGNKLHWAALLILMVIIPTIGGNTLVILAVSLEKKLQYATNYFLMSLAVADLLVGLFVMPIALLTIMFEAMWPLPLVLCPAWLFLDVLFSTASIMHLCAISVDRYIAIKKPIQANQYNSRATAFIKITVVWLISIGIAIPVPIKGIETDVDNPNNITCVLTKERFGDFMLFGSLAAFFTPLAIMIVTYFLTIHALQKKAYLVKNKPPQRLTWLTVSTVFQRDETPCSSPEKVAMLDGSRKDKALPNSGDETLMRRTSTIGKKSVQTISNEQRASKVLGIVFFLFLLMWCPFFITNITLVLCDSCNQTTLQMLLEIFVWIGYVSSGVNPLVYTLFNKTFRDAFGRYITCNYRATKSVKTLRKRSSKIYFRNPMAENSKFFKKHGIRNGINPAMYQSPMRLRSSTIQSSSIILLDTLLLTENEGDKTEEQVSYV
T3 sequence (P28223 whole entry): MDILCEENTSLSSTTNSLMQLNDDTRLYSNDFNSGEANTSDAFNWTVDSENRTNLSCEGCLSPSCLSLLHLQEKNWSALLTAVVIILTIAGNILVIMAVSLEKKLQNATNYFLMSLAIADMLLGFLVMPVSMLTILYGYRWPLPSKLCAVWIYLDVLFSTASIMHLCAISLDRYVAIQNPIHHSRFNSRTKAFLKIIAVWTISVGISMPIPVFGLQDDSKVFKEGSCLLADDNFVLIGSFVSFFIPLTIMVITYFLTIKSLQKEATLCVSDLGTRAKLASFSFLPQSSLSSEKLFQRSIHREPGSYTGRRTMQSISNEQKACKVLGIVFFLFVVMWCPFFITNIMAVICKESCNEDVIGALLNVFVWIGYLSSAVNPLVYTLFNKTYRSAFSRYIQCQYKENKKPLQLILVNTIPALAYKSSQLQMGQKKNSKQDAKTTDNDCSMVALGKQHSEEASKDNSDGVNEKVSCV

SMILES	5-HT2B % Activation @ 10 μM (5-HT2B receptor) [%]	EC50 (5-HT2C receptor) [nM]	Emax (5-HT2C receptor) [%]	EC50 (5-HT2A receptor) [nM]	Emax (5-HT2A receptor) [%]
N#Cc1cnc2[nH]cc(CCN3CCCC3)c2c1 [Compound S69, 3-(2-(pyrrolidin-1-yl)ethyl)-1H-pyrrolo[2,3-b]pyridine-5-carbonitrile]	0	> 10000	0	1470	86
CCN(C)CCc1c[nH]c2ncc(C#N)cc12 [Compound S66, 3-(2-(ethyl(methyl)amino)ethyl)-1H-pyrrolo[2,3-b]pyridine-5-carbonitrile]	0	> 10000	1	1170	65
CC1CCN1CCc1c[nH]c2ncc(Br)cc12 (centres unmarked) [Compound S59, 5-bromo-3-(2-(2-methylazetidin-1-yl)ethyl)-1H-pyrrolo[2,3-b]pyridine]	0	> 10000	19	410	69
CN(CCc1c[nH]c2ncc(C#N)cc12)C1CC1 [Compound S68, 3-(2-(cyclopropyl(methyl)amino)ethyl)-1H-pyrrolo[2,3-b]pyridine-5-carbonitrile]	11	4570	44	566	70
N#Cc1cnc2[nH]cc(CCN3CCC3)c2c1 [Compound S70, 3-(2-(azetidin-1-yl)ethyl)-1H-pyrrolo[2,3-b]pyridine-5-carbonitrile]	0	> 10000	16	681	78
CC(C)N(C)CCc1c[nH]c2ncc(OC(F)(F)F)cc12 [Compound S65, N-methyl-N-(2-(5-(trifluoromethoxy)-1H-pyrrolo[2,3-b]pyridin-3-yl)ethyl)propan-2-amine]	1	> 10000	0	665	73
Brc1cnc2[nH]cc(CCN3CCC3)c2c1 [Compound S58, 3-(2-(azetidin-1-yl)ethyl)-5-bromo-1H-pyrrolo[2,3-b]pyridine]	3	231	67	124	79
CN(CCc1c[nH]c2ncc(Cl)cc12)C1CC1 [Compound S42, N-(2-(5-chloro-1H-pyrrolo[2,3-b]pyridin-3-yl)ethyl)-N-methylcyclopropanamine]	15	1100	75	143	58
CC(C)N(C)CCc1c[nH]c2ncc(C#N)cc12 [Compound S67, 3-(2-(isopropyl(methyl)amino)ethyl)-1H-pyrrolo[2,3-b]pyridine-5-carbonitrile]	4	> 10000	2	609	80
Fc1cccc(CNCCc2c[nH]c3ncc(Br)cc23)c1 [Compound S61, 2-(5-bromo-1H-pyrrolo[2,3-b]pyridin-3-yl)-N-(3-fluorobenzyl)ethan-1-amine]	0	1920	73	74.7	65
CN(CCc1c[nH]c2ncc(OC(F)(F)F)cc12)C1CC1 [Compound S41, N-methyl-N-(2-(5-(trifluoromethoxy)-1H-pyrrolo[2,3-b]pyridin-3-yl)ethyl)cyclopropanamine]	0	> 10000	0	822	41
COc1cccc(CNCCc2c[nH]c3ncc(Br)cc23)c1 [Compound S63, 2-(5-bromo-1H-pyrrolo[2,3-b]pyridin-3-yl)-N-(3-methoxybenzyl)ethan-1-amine]	0	2970	48	104	63
N#Cc1cnc2[nH]cc(CCNCc3cccc(F)c3)c2c1 [Compound S73, 3-(2-((3-fluorobenzyl)amino)ethyl)-1H-pyrrolo[2,3-b]pyridine-5-carbonitrile]	2	7430	43	134	66
N#Cc1cnc2[nH]cc(CCNCc3ccccc3F)c2c1 [Compound S72, 3-(2-((2-fluorobenzyl)amino)ethyl)-1H-pyrrolo[2,3-b]pyridine-5-carbonitrile]	0	5070	47	179	70
COc1ccccc1CNCCc1c[nH]c2ncc(C#N)cc12 [Compound S74, 3-(2-((2-methoxybenzyl)amino)ethyl)-1H-pyrrolo[2,3-b]pyridine-5-carbonitrile]	15	1880	88	7.7	93
CCN(C)CCc1c[nH]c2ncc(Cl)cc12 [Compound S52, 2-(5-chloro-1H-pyrrolo[2,3-b]pyridin-3-yl)-N-ethyl-N-methylethan-1-amine]	3	1950	49	149	61
Fc1cnc2[nH]cc(CCN3CCCC3)c2c1 [Compound S6, 5-fluoro-3-(2-(pyrrolidin-1-yl)ethyl)-1H-pyrrolo[2,3-b]pyridine]	16	1860	81	37.9	81
CC(C)N(C)CCc1c[nH]c2ncc(Br)cc12 [Compound S55, N-(2-(5-bromo-1H-pyrrolo[2,3-b]pyridin-3-yl)ethyl)-N-methylpropan-2-amine]	4	3590	34	158	73
COc1cnc2[nH]cc(CCN3CCC3)c2c1 [Compound S45, 3-(2-(azetidin-1-yl)ethyl)-5-methoxy-1H-pyrrolo[2,3-b]pyridine]	0	> 10000	11	24	86
C[C@@H]1CCN1CCc1c[nH]c2ncc(F)cc12 [Compound S49, (R)-5-fluoro-3-(2-(2-methylazetidin-1-yl)ethyl)-1H-pyrrolo[2,3-b]pyridine]	0	> 10000	28	65.7	78
CC(C)N(C)CCc1c[nH]c2ncc(Cl)cc12 [Compound S53, N-(2-(5-chloro-1H-pyrrolo[2,3-b]pyridin-3-yl)ethyl)-N-methylpropan-2-amine]	26	2580	71	115	84
Fc1cnc2[nH]cc(CCN3CCCCC3)c2c1 [Compound S7, 5-fluoro-3-(2-(piperidin-1-yl)ethyl)-1H-pyrrolo[2,3-b]pyridine]	0	> 10000	2	529	70
CN(CCc1c[nH]c2ncc(Br)cc12)C1CC1 [Compound S56, N-(2-(5-bromo-1H-pyrrolo[2,3-b]pyridin-3-yl)ethyl)-N-methylcyclopropanamine]	2	1850	45	226	54
CCN(C)CCc1c[nH]c2ncc(OC(F)(F)F)cc12 [Compound S64, N-ethyl-N-methyl-2-(5-(trifluoromethoxy)-1H-pyrrolo[2,3-b]pyridin-3-yl)ethan-1-amine]	1	> 10000	0	1670	47
Fc1cnc2[nH]cc(CCNC3CC3)c2c1 [Compound S2, N-(2-(5-fluoro-1H-pyrrolo[2,3-b]pyridin-3-yl)ethyl)cyclopropanamine]	74	187	92	10.8	92
